Earlier results, collected in patent US5986061A (priority 1995, dated 1999).

Assays:
[1] = test system: vesicular stomatitis virus and bovine MDBK cells; details: literature (16, 28, 63); cited from earlier work
[2] = target: T1, Hu-IFN-α/β receptor on bovine MDBK cells (Bos taurus, UniProt Q04790+Q95141); details: literature (16, 28, 63); cited from earlier work
T1 construct: endogenous in cells; host or cells: MDBK
T1 sequence (Q04790 25-560): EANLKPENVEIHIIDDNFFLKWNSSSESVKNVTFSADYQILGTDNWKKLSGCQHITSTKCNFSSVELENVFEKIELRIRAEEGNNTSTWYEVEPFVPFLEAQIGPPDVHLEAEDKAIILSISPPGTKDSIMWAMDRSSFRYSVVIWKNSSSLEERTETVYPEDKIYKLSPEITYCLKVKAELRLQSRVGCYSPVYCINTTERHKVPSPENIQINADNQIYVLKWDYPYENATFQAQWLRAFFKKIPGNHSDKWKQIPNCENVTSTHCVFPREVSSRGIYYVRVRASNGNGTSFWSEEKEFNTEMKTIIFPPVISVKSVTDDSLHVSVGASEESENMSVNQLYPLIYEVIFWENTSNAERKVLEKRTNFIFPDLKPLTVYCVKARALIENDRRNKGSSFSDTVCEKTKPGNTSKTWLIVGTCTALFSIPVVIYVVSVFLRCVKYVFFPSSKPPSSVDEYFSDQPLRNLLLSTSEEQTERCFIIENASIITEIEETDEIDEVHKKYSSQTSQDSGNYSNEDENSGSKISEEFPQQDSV
T1 sequence (Q95141 27-530): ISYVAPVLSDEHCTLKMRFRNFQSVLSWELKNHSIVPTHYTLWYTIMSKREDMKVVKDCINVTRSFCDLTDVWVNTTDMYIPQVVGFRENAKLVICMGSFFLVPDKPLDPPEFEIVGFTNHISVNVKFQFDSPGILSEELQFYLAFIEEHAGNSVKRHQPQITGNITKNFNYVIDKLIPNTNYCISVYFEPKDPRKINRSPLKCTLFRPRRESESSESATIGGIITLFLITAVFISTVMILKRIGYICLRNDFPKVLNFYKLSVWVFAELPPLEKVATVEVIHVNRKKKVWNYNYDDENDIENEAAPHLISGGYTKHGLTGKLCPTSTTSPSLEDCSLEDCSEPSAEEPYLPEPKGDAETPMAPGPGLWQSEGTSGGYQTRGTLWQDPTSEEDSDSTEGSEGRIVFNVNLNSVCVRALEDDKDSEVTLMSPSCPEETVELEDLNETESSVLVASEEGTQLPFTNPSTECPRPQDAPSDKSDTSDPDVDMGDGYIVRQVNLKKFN

## Hu-IFN-gamma: human immune (gamma) interferon
[1]
  antiviral activity on MDBK cell line: does not

B1: Hu-IFN-gamma: human immune (gamma) interferon (protein, UniProt P01579 24-161, looked up)
Interferon gamma: QDPYVKEAENLKKYFNAGHSDVADNGTLFLGILKNWKEESDRKIMQSQIVSFYFKLFKNFKDDQSIQKSVETIKEDMNVKFFNSNKKKRDDFEKLTNYSVTDLNVQRKAIHELIQVMAELSPAAKTGKRKRSQMLFRG
[2]
  binding to MDBK cell line: does not
